Drawing on patent publication US11014911B2, “CDK2 inhibitors” (Pfizer Inc., priority 2019, dated 2021), this text covers Ki for 22 molecules.

In this assay the target is CDK2/Cyclin E1 full length (Homo sapiens (Human), UniProt P24941). Description: CDK2/Cyclin E1 full length mobility shift assay. The assay is classed as biochemical.

Method: Cdk2/Cyclin E1 Full Length Mobility Shift Assay
Wild-type CDK2/wild-type full length Cyclin E1 enzyme complex was produced in-house (baculoviral expression, LJIC-2080/LJIC-2103) and phosphorylated by CDK7/Cyclin H1/Matl enzyme complex with CDK2:CDK7 ratio of 50:1 (concentration mg/mL) in the presence of 10 mM MgCl2 and 5 mM ATP at room temperature for one hour. […] The assay was initiated with the addition of ATP, following a fifteen minutes pre-incubation of enzyme and inhibitor at room temperature in the reaction mixture. The reaction was stopped after 45 minutes at room temperature by the addition of 50 μL of 80 mM EDTA.

For the molecule `CC[C@H](C)CNC(=O)O[C@@H]1CC[C@H](c2cc(NC(=O)Cc3cnc(C)o3)n[nH]2)C1` [Example 416, (1R,3S)-3-(3-{[(2-methyl-1,3-oxazol-5-yl)acetyl]amino}-1H-pyrazol-5-yl)cyclopentyl [(2S)-2-methylbutyl]carbamate], the Ki – broadly, the dissociation constant of the complex between target and ligand, obtained from inhibition or displacement – is 2.27 nM.
`CC(C)(C)CNC(=O)O[C@@H]1CC[C@H](c2cc(NC(=O)Cc3ccno3)n[nH]2)C1` [Example 418, (1R,3S)-3-{3-[(1,2-oxazol-5-ylacetyl)amino]-1H-pyrazol-5-yl}cyclopentyl (2,2-dimethylpropyl)carbamate]: the Ki came out at 2.69 nM.
For `CC1(NC(=O)O[C@@H]2CC[C@H](c3cc(NC(=O)Cc4ccon4)n[nH]3)C2)CC1` [Example 419, (1R,3S)-3-{3-[(1,2-oxazol-3-ylacetyl)amino]-1H-pyrazol-5-yl}cyclopentyl (1-methylcyclopropyl)carbamate] the value was 0.36 nM.
The value for `CC1(NC(=O)O[C@@H]2CC[C@H](c3cc(NC(=O)Cc4ccccn4)n[nH]3)C2)CC1` [Example 420, (1R,3S)-3-{3-[(pyridin-2-ylacetyl)amino]-1H-pyrazol-5-yl}cyclopentyl (1-methylcyclopropyl)carbamate] was 0.54 nM.
The value for `Cn1ccc(CC(=O)Nc2cc([C@H]3CC[C@@H](OC(=O)NC4(C)CC4)C3)[nH]n2)n1` [Example 421, (1R,3S)-3-(3-{[(1-methyl-1H-pyrazol-3-yl)acetyl]amino}-1H-pyrazol-5-yl)cyclopentyl (1-methylcyclopropyl)carbamate] was 0.94 nM.
`Cc1coc(CC(=O)Nc2cc([C@H]3CC[C@@H](OC(=O)NC4(C)CC4)C3)[nH]n2)n1` [Example 422, (1R,3S)-3-(3-{[(4-methyl-1,3-oxazol-2-yl)acetyl]amino}-1H-pyrazol-5-yl)cyclopentyl (1-methylcyclopropyl)carbamate]: the Ki is 0.55 nM.
The value for `CC1(NC(=O)O[C@@H]2CC[C@H](c3cc(NC(=O)Cc4cscn4)n[nH]3)C2)CC1` [Example 423, (1R,3S)-3-{3-[(1,3-thiazol-4-ylacetyl)amino]-1H-pyrazol-5-yl}cyclopentyl (1-methylcyclopropyl)carbamate] was 0.6 nM.
Consider `Cc1ccnc(CC(=O)Nc2cc([C@H]3CC[C@@H](OC(=O)NC4(C)CC4)C3)[nH]n2)c1` [Example 425, (1R,3S)-3-(3-{[(4-methylpyridin-2-yl)acetyl]amino}-1H-pyrazol-5-yl)cyclopentyl (1-methylcyclopropyl)carbamate], for which the Ki turned out to be 1.05 nM.
On to `Cc1cccnc1CC(=O)Nc1cc([C@H]2CC[C@@H](OC(=O)NC3(C)CC3)C2)[nH]n1` [Example 427, (1R,3S)-3-(3-{[(3-methylpyridin-2-yl)acetyl]amino}-1H-pyrazol-5-yl)cyclopentyl (1-methylcyclopropyl)carbamate], for which the Ki is 1.78 nM.
In the case of `CC1(NC(=O)O[C@@H]2CC[C@H](c3cc(NC(=O)Cc4ncccc4F)n[nH]3)C2)CC1` [Example 429, (1R,3S)-3-(3-{[(3-fluoropyridin-2-yl)acetyl]amino}-1H-pyrazol-5-yl)cyclopentyl (1-methylcyclopropyl)carbamate], the Ki was determined as 1.15 nM.
`CC1(NC(=O)O[C@@H]2CC[C@H](c3cc(NC(=O)Cc4ccc(F)cn4)n[nH]3)C2)CC1` [Example 430, (1R,3S)-3-(3-{[(5-fluoropyridin-2-yl)acetyl]amino}-1H-pyrazol-5-yl)cyclopentyl (1-methylcyclopropyl)carbamate]: the Ki turned out to be 1.14 nM.
As for `Cc1nc(CC(=O)Nc2cc([C@H]3CC[C@@H](OC(=O)NC4(C)CC4)C3)[nH]n2)cs1` [Example 431, (1R,3S)-3-(3-{[(2-methyl-1,3-thiazol-4-yl)acetyl]amino}-1H-pyrazol-5-yl)cyclopentyl (1-methylcyclopropyl)carbamate], the Ki amounted to 1.19 nM.
The value for `CC1(NC(=O)O[C@@H]2CC[C@H](c3cc(NC(=O)Cc4coc(C5CC5)n4)n[nH]3)C2)CC1` [Example 432, (1R,3S)-3-(3-{[(2-cyclopropyl-1,3-oxazol-4-yl)acetyl]amino}-1H-pyrazol-5-yl)cyclopentyl (1-methylcyclopropyl)carbamate] was 1.25 nM.
For `Cc1ccc(F)c(CC(=O)Nc2cc([C@H]3CC[C@@H](OC(=O)NC4(C)CC4)C3)[nH]n2)n1` [Example 435, (1R,3S)-3-(3-{[(3-fluoro-6-methylpyridin-2-yl)acetyl]amino}-1H-pyrazol-5-yl)cyclopentyl (1-methylcyclopropyl)carbamate] the value was 1.49 nM.
The value for `CC(C)n1cc(CC(=O)Nc2cc([C@H]3CC[C@@H](OC(=O)NC4(C)CC4)C3)[nH]n2)nn1` [Example 436, (1R,3S)-3-[3-({[1-(propan-2-yl)-1H-1,2,3-triazol-4-yl]acetyl}amino)-1H-pyrazol-5-yl]cyclopentyl (1-methylcyclopropyl)carbamate] was 3.3 nM; that for `Cc1cnc(CC(=O)Nc2cc([C@H]3CC[C@@H](OC(=O)NC4(C)CC4)C3)[nH]n2)c(Cl)c1` [Example 438, (1R,3S)-3-(3-{[(3-chloro-5-methylpyridin-2-yl)acetyl]amino}-1H-pyrazol-5-yl)cyclopentyl (1-methylcyclopropyl)carbamate] was 2.5 nM.
Regarding `Cc1cc(Cl)cnc1CC(=O)Nc1cc([C@H]2CC[C@@H](OC(=O)NC3(C)CC3)C2)[nH]n1` [Example 439, (1R,3S)-3-(3-{[(5-chloro-3-methylpyridin-2-yl)acetyl]amino}-1H-pyrazol-5-yl)cyclopentyl (1-methylcyclopropyl)carbamate], the Ki was 2.37 nM.
Regarding `Cc1cc(CC(=O)Nc2cc([C@H]3CC[C@@H](OC(=O)NC4(C)CC4)C3)[nH]n2)ncc1Cl` [Example 440, (1R,3S)-3-(3-{[(5-chloro-4-methylpyridin-2-yl)acetyl]amino}-1H-pyrazol-5-yl)cyclopentyl (1-methylcyclopropyl)carbamate], the Ki came out at 1.47 nM.
For `Cc1ccnc(CC(=O)Nc2cc([C@H]3CC[C@@H](OC(=O)NC4(C)CC4)C3)[nH]n2)c1Cl` [Example 441, (1R,3S)-3-(3-{[(3-chloro-4-methylpyridin-2-yl)acetyl]amino}-1H-pyrazol-5-yl)cyclopentyl (1-methylcyclopropyl)carbamate] the value was 1.42 nM.
The value for `Cc1nc(CC(=O)Nc2cc([C@H]3CC[C@@H](OC(=O)NC4(C)CC4)C3)[nH]n2)ccc1Cl` [Example 442, (1R,3S)-3-(3-{[(5-chloro-6-methylpyridin-2-yl)acetyl]amino}-1H-pyrazol-5-yl)cyclopentyl (1-methylcyclopropyl)carbamate] was 0.37 nM; that for `CC1(NC(=O)O[C@@H]2CC[C@H](c3cc(NC(=O)Cc4cc(C(F)F)ccn4)n[nH]3)C2)CC1` [Example 443, (1R,3S)-3-[3-({[4-(difluoromethyl)pyridin-2-yl]acetyl}amino)-1H-pyrazol-5-yl]cyclopentyl (1-methylcyclopropyl)carbamate] was 0.36 nM; that for `CC1(NC(=O)O[C@@H]2CC[C@H](c3cc(NC(=O)Cc4cc(C(F)(F)F)ccn4)n[nH]3)C2)CC1` [Example 444, (1R,3S)-3-[3-({[4-(trifluoromethyl)pyridin-2-yl]acetyl}amino)-1H-pyrazol-5-yl]cyclopentyl (1-methylcyclopropyl)carbamate] was 1.41 nM.
